For assay [1], the system named is Ramos B-cell line stimulated with IL-4. Briefly: Assay for Ramos B-Cell Line Stimulated with IL-4 (CD23 upregulation, FACS). As to conditions: IL-4 50 units/mL, 20-24 hours, anti-CD23-PE staining, FACS, read-out: Example 2 (IC50, Ramos B-cell line stimulated with IL-4). Type of assay: cell-based, human. An excerpt:
One means of assaying for such inhibition is detection of the effect of the 2,4-pyrimidinediamine compounds on the upregulation of downstream gene products. In the Ramos/IL4 assay, B-cells are stimulated with the cytokine Interleukin-4 (IL-4) leading to the activation of the JAK/Stat pathway through phosphorylation of the JAK family kinases, JAK1 and JAK3, which in turn phosphorylate and activate the transcription factor Stat-6. […] To study the effect of inhibitors (e.g., the 2,4-substituted pyrimindinediamine compounds described herein) on the JAK1 and JAK3 kinases, human Ramos B cells are stimulated with human IL-4. Twenty to 24 hours post stimulation, cells are stained for upregulation of CD23 and analyzed using flow cytometry (FACS). […] An exemplary assay of this type is described in greater detail in Example 2.
B-cells stimulated with cytokine Interleukin-4 (IL-4) activate the JAK/Stat pathway through phosphorylation of the JAK family kinases, JAK-1 and JAK-3, which in turn phosphorylate and activate the transcription factor Stat-6. […] To study the effect of inhibitors on the JAK family kinases, human Ramos B cells are stimulated with human IL-4.
The Ramos B-cell line was acquired from ATCC (ATCC Catalog No. CRL-1596). The cells were cultured in RPMI 1640 (Cellgro, MediaTech, Inc., Herndon, Va., Cat No. 10-040-CM) with 10% fetal bovine serum (FBS), heat inactivated (JRH Biosciences, Inc, Lenexa, Kans., Cat No. 12106-500M) according to ATCC propagation protocol. Cells were maintained at a density of 3.5×10^5. The day before the experiment, Ramos B-cells were diluted to 3.5×10^5 cells/mL to ensure that they were in a logarithmic growth phase.
Cells were spun down and suspended in RPMI with 5% serum. 5×10^4 cells were used per point in a 96-well tissue culture plate. Cells were pre-incubated with compound or DMSO (Sigma-Aldrich, St. Louis, Mo., Cat No. D2650) vehicle control for 1 hour in a 37° C. incubator.
Cells were then stimulated with IL-4 (Peprotech Inc., Rocky Hill, N.J., Cat No. 200-04) for a final concentration of 50 units/mL for 20-24 hours. Cells were then spun down and stained with anti-CD23-PE (BD Pharmingen, San Diego, Calif., Cat No. 555711) and analyzed by FACS. Detection was performed using a BD LSR I System Flow Cytometer, purchased from Becton Dickinson Biosciences of San Jose, Calif.

The next assay relates to Primary human T-cells. Briefly: Primary Human T-Cell Proliferation Assay Stimulated with IL-2 (CellTiter-Glo). As to conditions: IL-2, 72 hours, ATP quantitation (CellTiter-Glo), read-out: Example 3 (IC50, primary human T-cell proliferation stimulated with IL-2). It is filed as cell-based. The source says:
The activity of the active compounds of the invention may further be characterized by assaying the effect of the 2,4-pyrimidinediamine compounds described herein on the proliferative response of primary human T-cells. In this assay, primary human T-cells derived from peripheral blood and pre-activated through stimulation of the T-cell receptor and CD28, proliferate in culture in response to the cytokine Interleukin-2 (IL-2). This proliferative response is dependent on the activation of JAK1 and JAK3 tyrosine kinases, which phosphorylate and activate the transcription factor Stat-5. The primary human T-cells are incubated with the 2,4-pyrimidinediamine compounds in the presence of IL-2 for 72 hours and at the assay endpoint intracellular ATP concentrations are measured to assess cell viability. A reduction in cell proliferation compared to control conditions is indicative of inhibition of the JAK kinase pathway. An exemplary assay of this type is described in greater detail in Example 3.
Primary human T-cells derived from peripheral blood and pre-activated through stimulation of the T-cell receptor and CD28, proliferate in vitro in response to the cytokine Interleukin-2 (IL-2). This proliferative response is dependent on the activation of JAK-1 and JAK-3 tyrosine kinases, which phosphorylate and activate the transcription factor Stat-5.
Human primary T cells were prepared as follows. Whole blood was obtained from a healthy volunteer, mixed 1:1 with PBS, layered on to Ficoll Hypaque (Amersham Pharmacia Biotech, Piscataway, N.J., Catalog #17-1440-03) in 2:1 blood/PBS:ficoll ratio and centrifuged for 30 min at 4° C. at 1750 rpm. The lymphocytes at the serum: ficoll interface were recovered and washed twice with 5 volumes of PBS. The cells were resuspended in Yssel's medium (Gemini Bio-products, Woodland, Calif., Catalog #400-103) containing 40 U/mL recombinant IL2 (R and D Systems, Minneapolis, Minn., Catalog #202-IL (20 μg)) and seeded into a flask pre-coated with 1 μg/mL anti-CD3 (BD Pharmingen, San Diego, Calif., Catalog #555336) and […] (Immunotech, Beckman Coulter of Brea Calif., Catalog #IM1376). The primary T-cells were stimulated for 3-4 days, then transferred to a fresh flask and maintained in RPMI with 10% FBS and 40 U/mL IL-2.
Primary T-cells were washed twice with PBS to remove the IL-2 and resuspended in Yssel's medium at 2×10^6 cells/mL. 50 μL of cell suspension containing 80 U/mL IL-2 was added to each well of a flat bottom 96 well black plate. For the unstimulated control, IL-2 was omitted from the last column on the plate. Compounds were serially diluted in dimethyl sulfoxide (DMSO, 99.7% pure, cell culture tested, Sigma-Aldrich, St. Louis, Mo., Catalog No. D2650) from 5 mM in 3-fold dilutions, and then diluted 1:250 in Yssel's medium. 50 μL of 2× compound was added per well in duplicate and the cells were allowed to proliferate for 72 hours at 37° C.
Proliferation was measured using CellTiter-Glo® Luminescent Cell Viability Assay (Promega), which determines the number of viable cells in culture based on quantitation of the ATP present, as an indicator of metabolically active cells. The substrate was thawed and allowed to come to room temperature. After mixing the Cell Titer-Glo reagent and diluent together, 100 μL was added to each well. The plates were mixed on an orbital shaker for two minutes to induce lysis and incubated at room temperature for an additional ten minutes to allow the signal to equilibrate. Detection was performed using a Wallac Victor2 1420 multilabel counter purchased from Perkin Elmer, Shelton, Conn.
(In general: In ATP-based viability assays light output follows the ATP content of the culture.)

Read-outs that look alike come from different tables or passages of the source.

Regarding `Cn1nccc1NC(=O)Cc1cccc(Nc2nc(Nc3cccc(CS(N)(=O)=O)c3)ncc2F)c1` [Compound I-20, N2-[3-(Aminosulfonylmethylene)phenyl]-5-fluoro-N4-[(1-methylpyrazolyl-5-aminocarbonylmethylene)phenyl]-5-fluoro-2,4-pyrimidinediamine], the IC50 in assay [1] was 1140 nM. Take `Cc1ccc(Nc2ncc(F)c(Nc3cc4c(cc3F)CS(=O)(=O)N4)n2)cc1S(N)(=O)=O` [Compound V-3, N2-(3-aminosulfonyl-4-methyl)phenyl-5-fluoro-N4-(2,2-dioxo-5-fluoro-1,3-dihydrobenzo[c]isothiazol-6-yl)-2,4-pyrimidinediamine]: the IC50 in assay [1] (Homo sapiens, Ramos) came out at 12900 nM. In the case of `CCCN(Cc1ccc(Nc2nc(Nc3ccc(CS(=O)(=O)NC)cc3)ncc2F)cc1)S(=O)(=O)CC` [Compound I-9, N4-[4-(N-ethylsulfonyl-N-propyl)aminomethyl]phenyl-5-fluoro-N2-(4-methylaminosulfonylmethyl)phenyl-2,4-pyrimidinediamine], the IC50 in assay [1] was determined as 224 nM; in the assay on Primary human T-cells, 1380 nM. For the molecule `C#CCOC(=O)NCc1ccc(Nc2nc(Nc3cccc(CS(N)(=O)=O)c3)ncc2F)cc1` [Compound I-14, N2-(3-Aminosulfonylmethylphenyl)-5-fluoro-N4-{4-[(prop-2-ynyloxy)carbonylaminomethyl]phenyl}-2,4-pyrimidinediamine], the IC50 in assay [1] (Homo sapiens, Ramos) amounted to 354 nM.

Regarding `CC1(C)Oc2ccc(Nc3nc(Nc4ccc5c(c4)NS(=O)(=O)CO5)ncc3F)nc2NC1=O` [Compound V-4, N4-[2,2-dimethyl-3-oxo-4H-pyrid[1,4]oxazin-7-yl]-N2-[3,3-dioxo-1H-benzo[e][1,3,4]oxathiazin-7-yl]-5-fluoro-2,4-pyrimidinediamine], the IC50 in assay [1] (Homo sapiens, Ramos) turned out to be 794 nM; in the assay with Primary human T-cells (Homo sapiens, T-cell, 72 h), 1720 nM. Consider `NS(=O)(=O)c1cccc(Nc2ncc(F)c(Nc3cc4c(cc3F)CS(=O)(=O)N4)n2)c1` [Compound V-2, N2-(3-aminosulfonyl)phenyl-5-fluoro-N4-(2,2-dioxo-5-fluoro-1,3-dihydrobenzo[c]isothiazol-6-yl)-2,4-pyrimidinediamine], for which the IC50 in assay [1] (Homo sapiens, Ramos) was found to be 14800 nM; in the assay with Primary human T-cells (Homo sapiens, T-cell, 72 h), 24200 nM. With `Cc1cnc(Nc2cccc(S(N)(=O)=O)c2)nc1Nc1ccc2c(c1)C(NS(C)(=O)=O)CC2` (racemic) [VI-1, (+/−)-N2-(3-Aminosulfonylphenyl)-5-methyl-N4-[1-(methylsulfonyl)aminoindan-6-yl]-2,4-pyrimidinediamine], the IC50 in assay [1] (Homo sapiens, Ramos) worked out at 312 nM. With `CN1CCC(NS(=O)(=O)C=C2C=CC=C(Nc3nc(NC4=CC=CC(=CS(N)(=O)=O)C4)ncc3F)C2)CC1` [Compound I-21, N2-[3-(Aminosulfonylmethylene)phenyl]-5-fluoro-N4-[3-(1-methylpiperidin-4-ylaminosulfonylmethylene)phenyl]-2,4-pyrimidinediamine], the IC50 in assay [1] (Homo sapiens, Ramos) came out at 2550 nM. For the molecule `CC1(C)Oc2ccc(Nc3nc(Nc4ccc5c(c4)CN(S(N)(=O)=O)CC5)ncc3F)nc2NC1=O` [III-3, N2-(2-Aminosulfonyl-1,2,3,4-tetrahydroisoquinolin-7-yl)-N4-(2,2-dimethyl-3-oxo-4H-5-pyrid[1,4]oxazin-6-yl)-5-fluoro-2,4-pyrimidinediamine], the IC50 in assay [1] was determined as 72.9 nM; with Primary human T-cells it was 269 nM. `NS(=O)(=O)c1ccc(Nc2ncc(F)c(Nc3cc4c(cc3F)CS(=O)(=O)N4)n2)cc1` [Compound V-1, N2-(4-aminosulfonyl)phenyl-5-fluoro-N4-(2,2-dioxo-5-fluoro-1,3-dihydrobenzo[c]isothiazol-6-yl)-2,4-pyrimidinediamine]: the IC50 in assay [1] (Homo sapiens, Ramos) stood at 12400 nM.

As to `CCS(=O)(=O)NCCc1ccc(Nc2nc(Nc3ccc(CS(=O)(=O)NC)cc3)ncc2F)cc1` [Compound I-15, N4-[4-(2-ethylsulfonylamino)ethyl]phenyl-5-fluoro-N2-(4-methylaminosulfonylmethyl)phenyl-2,4-pyrimidinediamine], the IC50 in assay [1] stood at 378 nM. Regarding `O=S(=O)(NCc1ccc(Nc2ncc(C(F)(F)F)c(Nc3ccc(CNS(=O)(=O)C4CC4)cc3)n2)cc1)C1CC1` [II-4, N2,N4-bis(4-cyclopropylsulfonylaminomethyl)phenyl-5-trifluoromethyl-2,4-pyrimidinediamine], the IC50 in assay [1] was 136 nM; in the assay on Primary human T-cells, 423 nM. Regarding `C#CCOc1ccc(Nc2nc(Nc3cccc(CS(N)(=O)=O)c3)ncc2F)cc1` [Compound I-3, N2-(3-Aminosulfonylmethylphenyl)-5-fluoro-N4-[4-(prop-2-ynyloxy)phenyl]-2,4-pyrimidinediamine], the IC50 in assay [1] (Homo sapiens, Ramos) is 93.1 nM; with Primary human T-cells (Homo sapiens, T-cell, 72 h), 782 nM. Consider “N2-(3-Aminosulfonylmethylenephenyl)-5-fluoro-N4-[2-(2-N-morpholinoethylaminoacrbonyl)benzofuran-5-yl]-2,4-pyrimidinediamine [IV-5]”, for which, in assay [1], the IC50 came to 3040 nM.

Take `C#CCn1ccc2cc(Nc3nc(Nc4cccc(CS(N)(=O)=O)c4)ncc3F)ccc21` [IV-3, N2-(3-Aminosulfonylmethylphenyl)-5-fluoro-N4-[1-(propyn-3-yl)indol-5-yl]-2,4-pyrimidinediamine]: the IC50 was 214 nM in assay [1] (Homo sapiens, Ramos) and 1980 nM with Primary human T-cells (Homo sapiens, T-cell, 72 h). For `Cc1cnc(Nc2ccc(CNS(=O)(=O)c3cccnc3)cc2)nc1Nc1ccc(CNS(=O)(=O)c2cccnc2)cc1` [II-3, N2,N4-bis[4-(pyrid-3-yl)sulfonylaminomethyl]phenyl-5-methyl-2,4-pyrimidinediamine], the IC50 in assay [1] came out at 322 nM. Consider `CCS(=O)(=O)NCc1cccc(Nc2nc(Nc3ccc(CS(=O)(=O)NC)cc3)ncc2F)c1` [Compound I-12, N4-(3-ethylsulfonylaminomethyl)phenyl-5-fluoro-N2-(4-methylaminosulfonylmethyl)phenyl-2,4-pyrimidinediamine], for which the IC50 in assay [1] was 314 nM; in the assay with Primary human T-cells, 1380 nM. Consider `Cc1cnc(Nc2cccc(CNS(=O)(=O)C3CC3)c2)nc1Nc1ccc2c(n1)CCC(=O)O2` [Compound V-5], for which the IC50 in assay [1] (Homo sapiens, Ramos) was determined as 391 nM.

(Values after patent US8729087B2, “Compositions and methods for inhibition of the JAK pathway” (Rigel Pharmaceuticals, Inc., priority 2006, dated 2014).)
